From patent US8865672B2, “Prevention of tissue ischemia and related methods” (The United States of America, as represented by the …, priority 2006, dated 2014)
Ends that are not written are not given here. * marks the point of attachment. Biotin = O=C1N[C@H]2[C@H](CS[C@H]2CCCCC(=O)*)N1

Tests used:
[1] = tested on: vascular cell outgrowth from muscle explants; experiment: Explant invasion assay in 3D collagen; format: cell-based, mouse; details: wild type and TSP1 null explants, NO 10 μM, peptides 10 μM, NoC1 0.1 μg/ml, day 7
Procedure: Muscle biopsies from the pectoralis major muscle of 8 to 12 week old wild type or transgenic mice were harvested and explanted into 100 μl of type I collagen gel in 96-well tissue culture plates as described (Isenberg et al., Matrix Biol 24:110-123, 2005). Following gelation, the embedded explants were overlayed with 75 μl of EGM+2% FCS in the presence or absence of a dose range of DETA/NO (0.01-1000 μM) and other indicated treatments and then incubated at 37° C. and 5% CO2 for 7 days, at which time maximum vascular cell migration through the matrix was measured.

[2] = tested on: HUVEC; experiment: NO-stimulated HUVEC adhesion on type I collagen; format: cell-based, human; details: DEA/NO 10 μM
Procedure: Cell adhesion was carried out in 96-well culture plates. After pre-coating wells with type I collagen (3 μg/ml in DPBS) harvested cells were plated at a density of 1×10^4 cells/well in medium plus 0.1% BSA and treatment agents and incubated in 5% CO2 for 1 h. Wells were washed with PBS and cells fixed with 1% glutaraldehyde for 10 min., washed and stained with 1% crystal violet for 20 min. Excess stain was rinsed away, adherent cells treated with 10% acetic acid, and plates read at 570 nm.

[3] = tested on: murine ASMC (WT, CD36 null, CD47 null); experiment: Intracellular cGMP in murine ASMC; format: cell-based, mouse
Procedure: Murine ASMC were obtained from aortic segments harvested sterilely from C57B1/6 CD47 null or CD36 null mice as described (Ray et al., Methods Cell Sci 23:185-188, 2001) and cultured in SM-GM (Cambrex)+20% FCS. In the case of CD36 null cells, culture flasks were pre-coated with 1% gelatin prior to cell plating. Wild type C57B1/6 ASMC cultures were prepared as previously described (Isenberg et al., Matrix Biol 24:110-123, 2005). Cell culture purity was determined by immunohistochemistry staining for α-smooth muscle actin. Cells were used within passage 1 to 4 to minimize overgrowth of other cell types.
HUVEC (10^4 cells/well) grown overnight in 96-well culture plates containing full growth medium with 2% FCS and weaned in growth medium without additives and 1% FCS over 24 hrs before treatment with NO donors and other agents in SM-GM without additives+0.1% BSA. Intracellular cGMP levels were determined according to the manufacturer's instructions using an enzyme immunoassay kit (Amersham Biosciences). In other experiments ASMC from wild type and CD36 or CD47 null mice were plated onto 96-well culture plates and incubated overnight in full growth medium. They were then weaned off serum as described to SM-GM+0.1% BSA and treated with NO donor and other agents as indicated. Intracellular cyclic nucleotides were determined via immunoassay.

[4] = tested on: human platelets; experiment: Thrombin-induced human platelet aggregation; format: cell-based; details: high shear
Procedure: Platelets were pelleted from platelet-rich plasma (PRP) by centrifugation for 10 minutes at 200 g. They were then washed with acid citrate dextrose (ACD) (85 mM citric acid, 65 mM sodium citrate, 100 mM glucose, pH 5.1) at a ratio of 1:7 at room temperature. After pelleting the platelets again and removing the supernatant, the platelets were resuspended in 5 mL of Tyrode's buffer (137 mM NaCl, 3 mM KCl, 12 mM NaHCO3, 0.3 mM NaHPO4, 2 mM CaCl2, 1 mM MgCl2, 5.5 mM glucose, 5 mM HEPES, 3.5 mg/mL BSA, pH 7.4). The final platelet number was adjusted to […] in 500 μl/cuvette of Tyrode's buffer.
Aggregation of human platelets under high shear conditions was assessed using a standard optical aggregometer (Lumi-Dual Aggregometer, Chrono-Log Corp., Havertown, Pa.) at 37° C. and 1200 rpm in a volume of 500 μl buffer with a final platelet concentration of 2×10^5 platelets/μl over a 5 minute interval. Pre-incubation with TSP1 and TSP1-based agents was for 15 minutes prior to addition of thrombin and/or the rapidly releasing nitric oxide donor DEA/NO. In some experiments platelets were pre-incubated with the Rap1 inhibitor GGTI-298 (10 μM) (Calbiochem, La Jolla, Calif.) for 30 minutes prior to initiating aggregation. In other high shear aggregation experiments murine platelets were prepared as above with the following modifications. Mouse blood was collected by retro-orbital bleeding of anesthetized mice using heparinized tubes. PRP was prepared and then diluted with 4 vol. of Tyrodes containing 5 mM EDTA to prevent activation. After collection by centrifugation, platelets were resuspended in 2× initial PRP volume and held at room temperature for less than 1 hour before use. Aggregation conditions consisted of 250 μL of washed platelets stirred at 1200 rpm in a Chronolog Optical aggregometer at 37° C. DEA/NO (10 μM) was added 30 seconds prior to activation and 8-BrcGMP added 15 min prior to activation with 0.2 U/ml human thrombin. Data was collected using Chronolog “Aggrolink” software. Platelet aggregation under static conditions was assessed using a spectrophotometer (Beckman DU 640, Beckman Coulter, Fullerton, Calif.) and determined as a change in absorbance at 400 nm with continuous observation over a five minute interval. The cuvette was inverted once every 60 seconds. Pre-incubation with TSP1 and TSP1-based agents was for 15 minutes prior to addition of thrombin and/or DEA/NO to minimize the formation of thrombin-serpinthrombospondin complexes (Chang & Detwiler, Arch Biochem Biophys. 299:100-104, 1992), which interfere with thrombin-platelet interactions.
Fresh human platelets were suspended in Tyrode's buffer and under low shear conditions thrombin-stimulated aggregation measured as described. Platelets were then treated with peptide C6d (1 μM)±NO (10 μM DEA/NO) and thrombin and aggregation measure.

[5] = tested on: human platelets; experiment: cGMP in human platelets; format: cell-based; details: washed human platelets in Tyrode's buffer
Procedure: Fresh human platelets at 2×10^5 platelets/μl in Tyrode's buffer or PRP were pre-incubated with the indicated agents for 15 minutes and then challenged with DEA/NO for the indicated time interval at room temperature and total cGMP determined via immunoassay (Amersham, GE Healthcare, Buckinghamshire, UK). Murine WT and TSP1-null platelets were treated with DEA/NO and cGMP flux measured.

[6] = tested on: NO/cGMP signaling; experiment: cGMP signaling (NO-stimulated cGMP, immunoassay); format: cell-based, human; details: concentration for 50% inhibition of effect
Procedure: Vascular cells (endothelial) or HT-1080 cells (10^4 cells/well) grown overnight in 12-well culture in SM-GM containing 2% FCS or RPMI+10% FCS respectively and then weaned off serum over 48 h before treatment with NO donors and other agents in serum/additive free medium+0.1% BSA. Intracellular cGMP levels were determined using an enzyme immunoassay (Amersham, GE Health Care, UK). In other experiments fresh washed human platelets were incubated in Tyrode's buffer and the indicated treatment agents±NO and cGMP determined.

[7] = tested on: VSMC and endothelial cells; experiment: NO-stimulated adhesion of VSMC and endothelial cells to type I collagen (Example 9); format: cell-based; details: 10 μM DEA/NO
Procedure: Vascular cells (VSMC or endothelial) were plated at 10,000 cells/well onto 96-well plates (Maxisorb, Nunc) precoated with type I collagen (3 μg/ml). […] Plates were then washed with PBS, fixed with glutaraldehyde, stained with crystal violet, and washed. Absorbed stain was solubilized with acetic acid from fixed cells and the resulting color signal determined on a MR580Microelisa Auto Reader, (Dynatech, Alexandria, Va.) at 450 nm wavelength.

[8] = tested on: random myocutaneous flaps in mice; experiment: Random myocutaneous (McFarlane) flap model; format: in vivo, mouse; details: aged TSP1-null animals, agent in drinking water
Procedure: WT and TSP1 null mice were matched for sex and age. Under isoflurane inhalation anesthesia 1×2 cm random myocutaneous flaps were raised. Where indicated, animals received either L-NAME (0.5 mg/ml) or ISDN (1 mg/ml) ad libitum in drinking water during the post-operative period. On postoperative day 7, the animals were again anesthetized with inhalation isoflurane and flaps evaluated. Viable and necrotic areas of the flaps were determined by color, refill, eschar, and the pin-prick test. Outlines of viable and nonviable areas were traced using transparent film and the area of flap necrosis versus total flap area determined as described (Yu et al., Proc Natl Acad Sci USA 102:10999-11004, 2005).
Wild type, TSP1 null, CD36 null and CD47 null mice were matched for sex and age underwent random dorsal myocutaneous flaps as described (Isenberg et al., Blood 2006; Example 2) and tissue harvested on postoperative day 7.
The necrotic area of the flap was determined as described (Isenberg et al., Blood. Nov. 2, 2006) Animals were then euthanized and flaps excised, fixed in 10% paraformaldehyde and processed for histology.
Random myocutaneous flap wound beds and/or ischemic hindlimb vastus medialis muscle was assessed at indicated time points (72 hours or 7 days post-operatively) for visible alterations in vascularity under 5× magnification. An arbitrary though strictly applied definition of countable vessels was employed to highlight both individual vessels and vascular ramifications. In any given vascular plexus visible by 5× magnification a vessel was defined as that segment traversing two branches. Visible vessels without ramifications and branches were counted once. Treatment status and genetic background of tissue images was not known by the reviewer.
Animals underwent creation of a random myocutaneous (McFarlane) flap as previously described (Isenberg et al., Blood 109:1945-1952, 2007). Some animals received either ISDN (1 mg/mL) or L-NAME (0.5 mg/ml) ad libitum in the drinking water during the post-operative interval.
Flap soft tissue units and underling wound beds were injected with control vehicle (normal saline), a CD47 morpholino or a control morpholino (10 μM) in sterile saline. Flap survival was determined as described.

[9] = tested on: full thickness skin grafts in mice; experiment: Full thickness skin graft (FTSG) model; format: in vivo, mouse; details: TSP1-null grafts, agent in drinking water post-operatively
Procedure: Wild type, TSP1 null, CD47 null and CD36 null mice were matched for sex and age. Anesthesia was induced by and maintained with inhalation isoflurane. Body temperature was maintained at 37° C. with a heating pad during the procedure. The dorsal surface was clipped of hair and depilated with Nair®. The skin was then cleansed with surgical soap and alcohol and the animals draped. Using sterile technique, a 1×1 cm FTSG incorporating the panniculus carnosus, subcutaneous tissues and skin were raised. Graft dimensions were marked on the animal skin surface with the aid of a template to insure consistency in dimension. Grafts were in the midline of the animal and secured with four interrupted 5-0 nylon sutures. Sutures were so placed as to include the fascia of the dorsal musculature to provide increased immobilization of grafts to the underlying wound bed Animals were awakened and returned to individual cages and allowed ad libitum access to food and water. Trauma to FTSG was not encountered during the post-operative interval since grafts were located in the dorsal midline over the mid thoracic area and each animal was housed individually following surgery. On postoperative day three or seven, the animals were again anesthetized with inhalation isoflurane and skin graft survival evaluated.
The groups of animals utilized and the treatments received as indicated either at the time of skin grafting and/or during the post-operative interval are summarized in FIG. 21. Animals treated with ISDN (1 mg/ml) or L-NAME (0.5 mg/ml) had ad libitum access to drinking water containing the given concentrations of agents during the post-operative interval. Animals treated with a CD47 monoclonal antibody (Ab clone 301) or an isotype matched control antibody (Ig2α) underwent injection of 40 μg delivered as 10 μl of a 4 mg/ml stock in 100 μl of PBS with equal volumes injected between the wound bed and graft prior to suturing the graft in place. Animals treated with a CD47 morpholino oligonucleotide underwent injection of the FTSG and wound bed with 10 μmol/L in 250 μl of PBS with 125 μl volumes injected in the graft and wound bed, respectively prior to suturing the graft in place.
The necrotic areas of the FTSG were determined by color, refill, eschar, and the pin-prick test. The outlines of viable and nonviable areas were traced using transparent film, and the area of necrosis cut from the template and the area of skin graft necrosis versus total skin graft area determined by comparison of the original template weight to the weight of the cut template utilizing the method described by Ueda (Ueda et al., J Surg Res 80(2):200-204, 1998). Skin graft survival area was presented as the ration of graft survival on post-operative day three or seven divided by the original graft area multiplied by 100%. Additionally, digital images were then acquired using an Olympus C5500 digital camera at a fixed distance (20 cm perpendicular to the animal) under standard room lighting with autoflash and macro settings engaged and uploaded for image analysis of tissue survival with a standard software program (Image-Pro Plus, Media Cybernetics, Inc., Silver Spring, Md.). […]
Skin graft wound beds were assessed at indicated time points (72 hours or 7 days post-operatively) for visible alterations in vascularity under 5× magnification. […] Visible vessels without ramifications and branches were counted once. […]

## VTCGGGVQKRSRL [p245]
[1]
  NO-stimulated vascular cell outgrowth: inhibited vascular cell outgrowth

## FIRVVMYEGKK [7N3]
[1]
  NO-stimulated vascular cell outgrowth: inhibited vascular cell outgrowth
[2]
  concentration of maximal inhibition of NO-stimulated endothelial cell adhesion: 10 µM
[2]; 1 h
  NO-stimulated endothelial cell adhesion on type I collagen: inhibited NO-stimulated endothelial cell adhesion
[3]; CD36 null MASMC
  NO-stimulated cGMP: completely inhibited
[3]; CD47 null MASMC
  NO-stimulated cGMP: did not significantly inhibit
[4]
  concentration sufficient to significantly inhibit the NO delay: 10 nM
[4]; thrombin 0.2 U/ml, DEA/NO 10 μM
  NO delay of thrombin-induced platelet aggregation: blocked
[5]
  NO stimulated cGMP in platelets: partially inhibited

## GAKDFTAYR [C6s]
[6]
  cGMP signaling IC50: inactive
[7]
  NO-stimulated adhesion to type I collagen: not blocked

## O=[N+]([O-])O[C@H]1CO[C@H]2[C@@H]1OC[C@H]2O[N+](=O)[O-] [ISDN, Isosorbide dinitrate, reference compound]
[8]
  flap survival: did not dramatically alter flap survival
[9]
  FTSG survival: not substantially altered

## Biotin-IGWKGFTAYR [C6e]
[6]
  cGMP signaling IC50: inactive
[7]
  NO-stimulated adhesion to type I collagen: not blocked
